# Square brackets hold non-standard residues; d marks the D form. Side chains are listed from the residue outwards. Peptide text beside a SMILES is read from it. * marks the point of attachment. C18 diacid = O=C(O)CCCCCCCCCCCCCCCCC(=O)*; NMeY = CN[C@@H](Cc1ccc(O)cc1)C(=O)O; αMeF = C[C@](N)(Cc1ccccc1)C(=O)O; Iva = CC[C@](C)(N)C(=O)O; Aib = CC(C)(N)C(=O)O
# Target: T1, human GIPR (Homo sapiens, UniProt P48546)
# T1 construct: expressed in transfected cells; host or cells: CHO-K1 Cre-luc reporter cells (hGIPR/CHO-K1, also called hGIPR/CRE-LUC/CHO-K1)
# T1 sequence (P48546 22-466): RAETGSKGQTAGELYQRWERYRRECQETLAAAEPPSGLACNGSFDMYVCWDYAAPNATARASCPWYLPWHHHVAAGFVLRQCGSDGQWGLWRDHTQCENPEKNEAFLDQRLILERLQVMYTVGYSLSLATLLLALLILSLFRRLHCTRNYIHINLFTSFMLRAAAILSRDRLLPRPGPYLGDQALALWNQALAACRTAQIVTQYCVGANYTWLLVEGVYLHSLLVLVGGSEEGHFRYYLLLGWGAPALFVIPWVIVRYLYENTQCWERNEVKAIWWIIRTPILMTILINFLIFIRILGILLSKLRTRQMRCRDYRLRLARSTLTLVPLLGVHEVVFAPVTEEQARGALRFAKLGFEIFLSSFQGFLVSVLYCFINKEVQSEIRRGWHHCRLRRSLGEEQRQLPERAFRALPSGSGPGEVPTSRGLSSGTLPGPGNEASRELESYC
# Assay: Reporter assay of human GIPR gene (agonist activity, intracellular cAMP as index)
# Type: cell-based
# Conditions: Cre-luc reporter, hGIPR/CHO-K1 cells, 4 hours
# Description: Evaluation of Agonist Activity Against Human NPY2R, Human GIPR, and Human GLP-1R Using Change in Intracellular cAMP Concentration as Index
# The human GIPR gene having a sequence identical to the sequence of GenBank Accession No. U39231 was cloned into pMSRα-neo vector to prepare hGIPR/pMSRα-neo. This vector was introduced to the Cre-luc reporter cells obtained in (1) to obtain transformants. Next, a cell line induced to express luciferase, i.e., hGIPR/CHO-K1 cells, were selected from the obtained transformants by the addition of GIP.
# The hGIPR/CRE-LUC/CHO-K1 cells or the hGLP-1R/Crel cells were inoculated at a cell density of 25 μL/well (5,000 cells/well) to a 384-well white plate (Corning, 3570), and cultured overnight in Ham F12 medium containing 10% fetal bovine serum, 100 U/mL penicillin and 100 μg/mL streptomycin in a CO2 incubator of 37° C. On the next day, a medium containing a test compound was added at a concentration of 5 μL/well to the cells, and the resultant cells were incubated for 4 hours in a CO2 incubator of 37° C. to give the final concentration of 1 μM. SteadyGlo (Promega) was added thereto at a concentration of 30 μL/well, and the mixture was shaken with light shielded. After 30 minutes, the luciferase activity was measured using a plate reader Envision (PerkinElmer). For the GIPR agonist activity, the luciferase activity in the presence of 10 μM GIP was defined as 100%, and the luciferase activity from the addition of DMSO instead of the test compound was defined as 0%. The GIPR agonist activity was calculated with a rise in intracellular cAMP concentration as an index.
row,EC50,Compound
1,0.17 nM,CC[C@H](C)[C@H](NC(=O)[C@H](C)NC(=O)[C@H](CCCCNC(=O)CNC(=O)CNC(=O)CNC(=O)CNC(=O)CCCCCCCCCCCCCCCCC(=O)O)NC(=O)[C@H](CC(=O)O)NC(=O)[C@H](CO)NC(=O)[C@@H](NC(=O)[C@](C)(Cc1ccccc1)NC(=O)[C@@H](NC(=O)CNC(=O)[C@H](CCC(=O)O)NC(=O)C(C)(C)NC(=O)[C@H](Cc1ccc(O)cc1)NC)[C@@H](C)O)[C@@H](C)O)C(=O)NC(C)(C)C(=O)N[C@@H](CC(C)C)C(=O)N[C@@H](CC(=O)O)C(=O)N[C@@H](CCCCN)C(=O)N[C@@H](CCC(N)=O)C(=O)N[C@@H](CCCNC(=N)N)C(=O)N[C@@H](CCC(N)=O)C(=O)N[C@@](C)(CC)C(=O)N[C@@H](CCC(=O)O)C(=O)N[C@@H](Cc1ccccc1)C(=O)N[C@H](C(=O)N[C@@H](CCCNC(=N)N)C(=O)N[C@@H](Cc1c[nH]cn1)C(=O)N[C@@H](CC(C)C)C(=O)N[C@@H](CC(C)C)C(=O)N[C@@H](CC(N)=O)C(=O)N[C@@H](CCCCN)C(=O)NC(C)(C)C(=O)N[C@H](C(=O)N[C@@H](CCCNC(=N)N)C(=O)N[C@@H](CCC(N)=O)C(=O)N[C@@H](CCCNC(=N)N)C(=O)N[C@@H](Cc1ccc(O)cc1)C(N)=O)[C@@H](C)O)C(C)C [Example 14] (H-[NMeY][Aib]EGT[αMeF]TSDK([Gly-Gly-Gly-Gly-C18 diacid])AI[Aib]LDKQRQ[Iva]EFVRHLLNK[Aib]TRQRY-NH2)
2,0.074 nM,CC[C@H](C)[C@H](NC(=O)C(C)(C)NC(=O)[C@H](CCCCNC(=O)CNC(=O)CNC(=O)CNC(=O)CNC(=O)CCCCCCCCCCCCCCCCC(=O)O)NC(=O)[C@H](CC(=O)O)NC(=O)[C@H](CO)NC(=O)[C@@H](NC(=O)[C@](C)(Cc1ccccc1)NC(=O)[C@@H](NC(=O)CNC(=O)[C@H](CCC(=O)O)NC(=O)C(C)(C)NC(=O)[C@H](Cc1ccc(O)cc1)NC)[C@@H](C)O)[C@@H](C)O)C(=O)NC(C)(C)C(=O)N[C@@H](CC(C)C)C(=O)N[C@@H](CC(=O)O)C(=O)N[C@@H](CCCCN)C(=O)N[C@@H](CCC(N)=O)C(=O)N[C@@H](C)C(=O)N[C@@H](CCC(N)=O)C(=O)N[C@@](C)(CC)C(=O)N[C@@H](CCC(=O)O)C(=O)N[C@@H](Cc1ccccc1)C(=O)N[C@H](C(=O)N[C@@H](CCCNC(=N)N)C(=O)N[C@@H](Cc1c[nH]cn1)C(=O)N[C@@H](CC(C)C)C(=O)N[C@@H](CC(C)C)C(=O)N[C@@H](CC(N)=O)C(=O)N[C@@H](CCCCN)C(=O)NC(C)(C)C(=O)N[C@H](C(=O)N[C@@H](CCCNC(=N)N)C(=O)N[C@@H](CCC(N)=O)C(=O)N[C@@H](CCCNC(=N)N)C(=O)N[C@@H](Cc1ccc(O)cc1)C(N)=O)[C@@H](C)O)C(C)C [Example 30] (H-[NMeY][Aib]EGT[αMeF]TSDK([Gly-Gly-Gly-Gly-C18 diacid])[Aib]I[Aib]LDKQAQ[Iva]EFVRHLLNK[Aib]TRQRY-NH2)
